Read-outs that look alike come from different tables or passages of the source.
What was measured:
human TLR7 = human TLR7 (Homo sapiens (Human), UniProt Q9NYK1); assay: TLR7 inhibition reporter assay (HEK-Blue cells, SEAP reporter, gardiquimod stimulation); type: cell-based
human TLR9 = human TLR9 (Homo sapiens (Human), UniProt Q9NR96); assay: TLR9 inhibition reporter assay (HEK-Blue cells, SEAP reporter, ODN2006 stimulation);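 further: compounds tested over 0.05 nM to 50 µM, 22 h incubation, inhibition taken as SEAP signal drop from agonist plus DMSO wells toward a known inhibitor control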
human TLR9, sequence (Q9NR96 26-1032): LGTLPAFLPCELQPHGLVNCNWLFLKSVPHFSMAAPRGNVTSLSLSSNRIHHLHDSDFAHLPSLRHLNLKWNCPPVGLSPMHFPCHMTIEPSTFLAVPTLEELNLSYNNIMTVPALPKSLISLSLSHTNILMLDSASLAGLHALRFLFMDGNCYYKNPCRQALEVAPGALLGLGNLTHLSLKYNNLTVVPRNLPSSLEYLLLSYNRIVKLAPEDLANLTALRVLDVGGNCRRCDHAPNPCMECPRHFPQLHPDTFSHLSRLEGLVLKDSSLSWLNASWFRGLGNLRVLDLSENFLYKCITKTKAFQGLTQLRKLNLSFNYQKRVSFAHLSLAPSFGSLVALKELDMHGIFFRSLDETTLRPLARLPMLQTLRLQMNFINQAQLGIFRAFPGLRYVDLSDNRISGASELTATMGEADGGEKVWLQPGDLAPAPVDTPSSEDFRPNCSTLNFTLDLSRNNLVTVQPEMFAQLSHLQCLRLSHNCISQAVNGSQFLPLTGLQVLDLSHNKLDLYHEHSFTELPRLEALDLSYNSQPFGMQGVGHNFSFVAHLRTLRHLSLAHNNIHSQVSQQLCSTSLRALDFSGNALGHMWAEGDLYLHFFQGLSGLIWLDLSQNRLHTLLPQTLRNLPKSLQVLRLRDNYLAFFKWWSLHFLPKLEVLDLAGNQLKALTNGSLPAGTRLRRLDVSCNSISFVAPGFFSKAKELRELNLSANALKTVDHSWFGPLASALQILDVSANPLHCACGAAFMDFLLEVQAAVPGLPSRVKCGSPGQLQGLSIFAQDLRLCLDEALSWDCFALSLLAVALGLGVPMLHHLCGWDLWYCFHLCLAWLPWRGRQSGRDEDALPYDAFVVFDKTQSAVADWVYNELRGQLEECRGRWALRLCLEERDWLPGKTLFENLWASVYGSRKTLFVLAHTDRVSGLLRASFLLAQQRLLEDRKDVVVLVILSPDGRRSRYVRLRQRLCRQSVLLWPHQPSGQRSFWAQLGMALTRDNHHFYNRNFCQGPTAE

human TLR8 = human TLR8 (Homo sapiens (Human), UniProt Q9NR97); assay: TLR8 inhibition reporter assay (HEK-Blue cells, SEAP reporter, R848 stimulation);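 further: compounds tested from 0.05 nM to 50 µM, 22 h at 37 °C, SEAP measured with HEK-Blue Detection, inhibition relative to agonist plus DMSO versus a known inhibitor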
human TLR8, sequence (Q9NR97 27-1041): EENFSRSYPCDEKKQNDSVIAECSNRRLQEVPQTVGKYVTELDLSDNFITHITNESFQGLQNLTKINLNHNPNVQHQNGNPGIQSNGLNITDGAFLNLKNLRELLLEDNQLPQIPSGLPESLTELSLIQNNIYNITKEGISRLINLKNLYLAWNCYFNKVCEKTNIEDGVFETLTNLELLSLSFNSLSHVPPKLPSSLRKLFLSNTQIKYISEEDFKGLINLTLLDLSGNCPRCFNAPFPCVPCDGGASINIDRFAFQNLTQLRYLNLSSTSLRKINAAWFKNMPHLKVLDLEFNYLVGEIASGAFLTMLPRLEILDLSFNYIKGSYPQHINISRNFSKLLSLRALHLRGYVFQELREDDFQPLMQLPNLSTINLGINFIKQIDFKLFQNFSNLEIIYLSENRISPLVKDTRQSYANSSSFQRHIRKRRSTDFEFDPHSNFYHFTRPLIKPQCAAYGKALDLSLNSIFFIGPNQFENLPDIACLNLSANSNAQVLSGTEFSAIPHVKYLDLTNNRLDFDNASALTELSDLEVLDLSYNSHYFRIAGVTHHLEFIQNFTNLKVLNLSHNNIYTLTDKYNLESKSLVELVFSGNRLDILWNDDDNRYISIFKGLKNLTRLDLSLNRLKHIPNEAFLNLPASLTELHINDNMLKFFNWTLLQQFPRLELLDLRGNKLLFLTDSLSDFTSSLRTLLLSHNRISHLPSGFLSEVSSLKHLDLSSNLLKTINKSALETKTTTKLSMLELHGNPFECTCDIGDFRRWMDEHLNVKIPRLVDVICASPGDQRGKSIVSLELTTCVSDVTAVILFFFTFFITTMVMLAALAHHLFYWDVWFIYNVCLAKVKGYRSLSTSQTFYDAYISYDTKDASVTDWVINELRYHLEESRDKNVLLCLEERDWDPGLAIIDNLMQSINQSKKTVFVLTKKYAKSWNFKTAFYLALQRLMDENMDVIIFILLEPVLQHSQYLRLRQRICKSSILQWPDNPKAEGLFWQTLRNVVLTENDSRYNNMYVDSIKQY

[1] = HEK-Blue cells overexpressing human TLR7, gardiquimod 7.5 μM
[2] = read-out: TLR9 IC50, HEK-Blue cells overexpressing human TLR9, ODN2006 5 nM
[3] = read-out: TLR8 IC50, HEK-Blue cells overexpressing human TLR8, R848 15.9 μM
[4] = HEK-Blue cells, gardiquimod 7.5 μM
[5] = read-out: TLR9 IC50, HEK-Blue cells, ODN2006 5 nM
[6] = read-out: TLR8 IC50, HEK-Blue cells, R848 15.9 μM
[7] = TLR9 IC50, HEK-Blue cells overexpressing human TLR9, ODN2006 5 nM
[8] = TLR8 IC50, HEK-Blue cells overexpressing human TLR8, R848 15.9 μM

human TLR7, sequence (Q9NYK1 27-1049): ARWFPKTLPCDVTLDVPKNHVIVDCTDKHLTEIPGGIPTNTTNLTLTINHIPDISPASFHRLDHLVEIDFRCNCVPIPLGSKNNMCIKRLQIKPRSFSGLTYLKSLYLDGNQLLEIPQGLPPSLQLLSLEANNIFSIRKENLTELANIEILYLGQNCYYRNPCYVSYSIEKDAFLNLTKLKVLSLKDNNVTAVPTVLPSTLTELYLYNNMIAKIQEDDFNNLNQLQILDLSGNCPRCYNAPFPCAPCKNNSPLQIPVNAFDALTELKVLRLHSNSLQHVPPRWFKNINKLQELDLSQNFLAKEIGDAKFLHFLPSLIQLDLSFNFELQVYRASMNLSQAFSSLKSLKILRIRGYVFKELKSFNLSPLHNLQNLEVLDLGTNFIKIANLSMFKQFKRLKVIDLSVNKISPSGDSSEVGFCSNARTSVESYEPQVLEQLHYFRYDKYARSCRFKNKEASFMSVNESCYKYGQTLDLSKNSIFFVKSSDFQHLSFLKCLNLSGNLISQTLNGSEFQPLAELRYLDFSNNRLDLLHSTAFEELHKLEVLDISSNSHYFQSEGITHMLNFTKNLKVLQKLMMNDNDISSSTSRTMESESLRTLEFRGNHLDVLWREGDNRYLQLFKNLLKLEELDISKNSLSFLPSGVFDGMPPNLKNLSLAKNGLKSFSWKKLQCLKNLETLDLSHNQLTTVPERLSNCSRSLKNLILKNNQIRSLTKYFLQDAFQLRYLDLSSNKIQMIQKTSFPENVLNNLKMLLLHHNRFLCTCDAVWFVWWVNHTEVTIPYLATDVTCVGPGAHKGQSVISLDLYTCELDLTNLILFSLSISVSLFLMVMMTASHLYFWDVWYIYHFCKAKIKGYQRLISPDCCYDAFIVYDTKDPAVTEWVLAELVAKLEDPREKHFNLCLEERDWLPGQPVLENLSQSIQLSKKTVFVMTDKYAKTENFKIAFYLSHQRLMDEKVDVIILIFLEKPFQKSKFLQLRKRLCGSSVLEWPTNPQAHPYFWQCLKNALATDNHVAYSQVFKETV

| Compound | IC50 (human TLR7; [1]) | IC50 (human TLR9; [2]) | IC50 (human TLR8; [3]) | IC50 (human TLR7; [4]) | IC50 (human TLR9; [5]) | IC50 (human TLR8; [6]) | IC50 (human TLR9; [7]) | IC50 (human TLR8; [8]) |
| --- | --- | --- | --- | --- | --- | --- | --- | --- |
| COc1nccc(-c2[nH]c3ccc(C4CCN(C5CCN(CC(C)C)CC5)CC4)cc3c2C)c1OC [Example 799, 2-(2,3-dimethoxypyridin-4-yl)-5-(1′-isobutyl-[1,4′-bipiperidin]-4-yl)-3-methyl-1H-indole] | 1670 nM | 180 nM | 360 nM | – | – | – | – | – |
| CCCN1CCC(c2ccc3[nH]c(-c4cc(C)nc(C)c4)c(C(C)C)c3c2)CC1 [Example 323, 2-(2,6-dimethylpyridin-4-yl)-3-isopropyl-5-(1-propylpiperidin-4-yl)-1H-indole] | 1.4 nM | 359 nM | 3.9 nM | – | – | – | – | – |
| Cc1nc[nH]c1CN1CCC(c2ccc3[nH]c(-c4ccnc(N)c4)c(C(C)C)c3c2)CC1 [Example 816, 4-(3-isopropyl-5-(1-((4-methyl-1H-imidazol-5-yl)methyl)piperidin-4-yl)-1H-indol-2-yl)pyridin-2-amine] | – | – | – | 215 nM | 86 nM | 47.3 nM | – | – |
| Cc1cc(-c2[nH]c3ccc(C4CCN(C(=O)CNC5(C)CCOCC5)CC4)cc3c2C(C)C)cc(C)n1 [Example 374, 1-(4-(2-(2,6-dimethylpyridin-4-yl)-3-isopropyl-1H-indol-5-yl)piperidin-1-yl)-2-((4-methyltetrahydro-2H-pyran-4-yl)amino)ethan-1-one] | 5.6 nM | – | – | – | – | – | 548 nM | 21.4 nM |
| Cc1cc(-c2[nH]c3ccc(C4CCN(C(=O)C5CC(=O)N(C)C5)CC4)cc3c2CC(F)F)cc(C)n1 (stereo not drawn) [Example 534, 4-(4-(3-(2,2-difluoroethyl)-2-(2,6-dimethylpyridin-4-yl)-1H-indol-5-yl)piperidine-1-carbonyl)-1-methylpyrrolidin-2-one] | 63.8 nM | 45400 nM | 660 nM | – | – | – | – | – |
| Cc1cc(-c2[nH]c3ccc(C4CCN(C(=O)OC(C)C)CC4)cc3c2C(C)C)ccn1 [Example 559, isopropyl 4-(3-isopropyl-2-(2-methylpyridin-4-yl)-1H-indol-5-yl)piperidine-1-carboxylate] | 500 nM | 13500 nM | 878 nM | – | – | – | – | – |
| Cc1cc(-c2[nH]c3ccc(C4CCN(C(=O)CCO)CC4)cc3c2C(C)C)cc(C)n1 [Example 117, 1-(4-(2-(2,6-dimethylpyridin-4-yl)-3-isopropyl-1H-indol-5-yl)piperidin-1-yl)-3-hydroxypropan-1-one] | 6.6 nM | > 50000 nM | 116 nM | – | – | – | – | – |
| Cc1cc(-c2[nH]c3ccc(C4CCN(C(=O)CN5CCCC5=O)CC4)cc3c2C(C)C)cc(C)n1 [Example 154, 1-(2-(4-(2-(2,6-dimethylpyridin-4-yl)-3-isopropyl-1H-indol-5-yl)piperidin-1-yl)-2-oxoethyl)pyrrolidin-2-one] | 5.9 nM | > 50000 nM | 29.5 nM | – | – | – | – | – |
| Cc1cc(-c2[nH]c3ccc(C4CCN(S(C)(=O)=O)CC4)cc3c2C(C)C)ccn1 [Example 550, 3-isopropyl-2-(2-methylpyridin-4-yl)-5-(1-(methylsulfonyl)piperidin-4-yl)-1H-indole] | 39 nM | > 50000 nM | 162 nM | – | – | – | – | – |
| CNCC(=O)N1CCC(c2ccc3[nH]c(-c4cc(C)ncc4C)c(C(C)C)c3c2)CC1 [Example 620, 1-(4-(2-(2,5-dimethylpyridin-4-yl)-3-isopropyl-1H-indol-5-yl)piperidin-1-yl)-2-(methylamino)ethan-1-one] | 8.1 nM | – | – | – | – | – | 3570 nM | 3.5 nM |
| CCc1c(-c2ccnc(C)c2)[nH]c2ccc(C3CCN(C(=O)C4CC5(CCNCC5)C4)CC3)cc12 [Example 631, (4-(3-ethyl-2-(2-methylpyridin-4-yl)-1H-indol-5-yl)piperidin-1-yl)(7-azaspiro[3.5]nonan-2-yl)methanone] | 75.6 nM | 434 nM | 36.8 nM | – | – | – | – | – |
| COC(C)CN1CCC(c2ccc3[nH]c(-c4cc(C)nc(C)c4)c(C(C)C)c3c2)CC1 (stereo not drawn) [Example 332, 2-(2,6-dimethylpyridin-4-yl)-3-isopropyl-5-(1-(2-methoxypropyl)piperidin-4-yl)-1H-indole] | 5.2 nM | 396 nM | 4.5 nM | – | – | – | – | – |
| Cc1cc(-c2[nH]c3ccc(C4CCN(Cc5ncco5)CC4)cc3c2C(C)C)c(C)cn1 [Example 699, 2-((4-(2-(2,5-dimethylpyridin-4-yl)-3-isopropyl-1H-indol-5-yl)piperidin-1-yl)methyl)oxazole] | 38.7 nM | 40300 nM | 4.2 nM | – | – | – | – | – |
| Cc1cc(-c2[nH]c3ccc(C4CCN(C(=O)CC5CC(=O)NC(=O)N5)CC4)cc3c2C(C)C)cc(C)n1 (stereo not drawn) [Example 129, 6-(2-(4-(2-(2,6-dimethylpyridin-4-yl)-3-isopropyl-1H-indol-5-yl)piperidin-1-yl)-2-oxoethyl)dihydropyrimidine-2,4(1H,3H)-dione] | 18.1 nM | 32300 nM | 69.8 nM | – | – | – | – | – |
| CCc1c(-c2ccnc(C)c2)[nH]c2ccc(C3CCN(C(=O)C4CCNC4)CC3)cc12 (stereo not drawn) [Example 633, (4-(3-ethyl-2-(2-methylpyridin-4-yl)-1H-indol-5-yl)piperidin-1-yl)(pyrrolidin-3-yl)methanone] | 39 nM | 311 nM | 83.3 nM | – | – | – | – | – |
| Cc1cc(-c2[nH]c3ccc(C4CCN(C(=O)C(=O)O)CC4)cc3c2C(C)C)cc(C)n1 [Example 859, 2-(4-(2-(2,6-dimethylpyridin-4-yl)-3-isopropyl-1H-indol-5-yl)piperidin-1-yl)-2-oxoacetic acid] | – | – | – | 44.1 nM | > 50000 nM | 539 nM | – | – |
| Cc1cc(-c2[nH]c3ccc(C4CCN(CC(=O)N(C)CC#N)CC4)cc3c2C(C)C)cc(C)n1 [Example 247, N-(cyanomethyl)-2-(4-(2-(2,6-dimethylpyridin-4-yl)-3-isopropyl-1H-indol-5-yl)piperidin-1-yl)-N-methylacetamide] | 3 nM | 462 nM | 4 nM | – | – | – | – | – |
| Cc1cc(-c2[nH]c3ccc(C4CCN(C(=O)c5cnn(C)c5)CC4)cc3c2C(C)C)cc(C)n1 [Example 132, (4-(2-(2,6-dimethylpyridin-4-yl)-3-isopropyl-1H-indol-5-yl)piperidin-1-yl)(1-methyl-1H-pyrazol-4-yl)methanone] | 4.2 nM | 46900 nM | 90.8 nM | – | – | – | – | – |
| CNCCN1CCC(c2ccc3[nH]c(-c4ccncc4OC)c(C)c3c2)CC1 [Example 754, 2-(4-(2-(3-methoxypyridin-4-yl)-3-methyl-1H-indol-5-yl)piperidin-1-yl)-N-methylethan-1-amine] | 5860 nM | 325 nM | 27.5 nM | – | – | – | – | – |
| Cc1cc(-c2[nH]c3ccc(C4CCN(C=O)CC4)cc3c2C(C)C)cc(C)n1 [Example 862, 4-(2-(2,6-dimethylpyridin-4-yl)-3-isopropyl-1H-indol-5-yl)piperidine-1-carbaldehyde] | – | – | – | 5.1 nM | > 50000 nM | 120 nM | – | – |
| Cc1cc(C(=O)N2CCC(c3ccc4[nH]c(-c5cc(C)nc(C)c5)c(C(C)C)c4c3)CC2)c(=O)[nH]n1 [Example 135, 4-(4-(2-(2,6-dimethylpyridin-4-yl)-3-isopropyl-1H-indol-5-yl)piperidine-1-carbonyl)-6-methylpyridazin-3 (2H)-one] | 33.1 nM | 13300 nM | 99.9 nM | – | – | – | – | – |
| Cc1cc(-c2[nH]c3ccc(C4CCN(CC(=O)NC5CCOCC5)CC4)cc3c2C(C)C)cc(C)n1 [Example 280, 2-(4-(2-(2,6-dimethylpyridin-4-yl)-3-isopropyl-1H-indol-5-yl)piperidin-1-yl)-N-(tetrahydro-2H-pyran-4-yl)acetamide] | 3 nM | 350 nM | 6.1 nM | – | – | – | – | – |
| Cc1cc(-c2[nH]c3ccc(C4CCN(C5COC5)CC4)cc3c2C(C)C)c(F)c(C)n1 [Example 729, 2-(3-fluoro-2,6-dimethylpyridin-4-yl)-3-isopropyl-5-(1-(oxetan-3-yl)piperidin-4-yl)-1H-indole] | 10.1 nM | 3620 nM | 33.6 nM | – | – | – | – | – |
| Cc1cc(-c2[nH]c3ccc(C4CCN(C(=O)CN5CCNC(=O)C5)CC4)cc3c2C(C)C)cc(C)n1 [Example 379, 4-(2-(4-(2-(2,6-dimethylpyridin-4-yl)-3-isopropyl-1H-indol-5-yl)piperidin-1-yl)-2-oxoethyl) piperazin-2-one] | 7.7 nM | 3920 nM | 55.2 nM | – | – | – | – | – |
| Cc1cc(-c2[nH]c3ccc(C4CCN(C(=O)CN5CCN(C)CC5)CC4)cc3c2C(C)C)cc(C)n1 [Example 163, 1-(4-(2-(2,6-dimethylpyridin-4-yl)-3-isopropyl-1H-indol-5-yl)piperidin-1-yl)-2-(4-methylpiperazin-1-yl)ethan-1-one] | 0.9 nM | 778 nM | 8.4 nM | – | – | – | – | – |
| CCc1c(-c2ccnc(O)c2)[nH]c2ccc(C3CCN(C4CCN(CC(C)C)CC4)CC3)cc12 [Example 765, 4-(3-ethyl-5-(1′-isobutyl-[1,4′-bipiperidin]-4-yl)-1H-indol-2-yl)pyridin-2-ol] | 11000 nM | 181 nM | 341 nM | – | – | – | – | – |
| Cc1cc(-c2[nH]c3ccc(C4CCN(Cc5cnn(C)c5)CC4)cc3c2C(C)C)cc(C)n1 [Example 440, 2-(2,6-dimethylpyridin-4-yl)-3-isopropyl-5-(1-((1-methyl-1H-pyrazol-4-yl)methyl)piperidin-4-yl)-1H-indole] | 5.3 nM | 210 nM | 2.3 nM | – | – | – | – | – |

From patent US10660877B2 (BRISTOL-MYERS SQUIBB COMPANY, priority 2016, dated 2020)
